# Patent US20050070496A1, “Semi-solid formulations for the oral administration of taxoids” (Aventis Pharma S. A., priority 2003, published 2005)
# Marks after values point to notes of the source that are not given here.
# Assays:
# [1] = Solubility in semi-solid excipients (at the melted state) and solid excipients
# Excerpt: The solubility of taxoid of formula Ib at room temperature has been determined by X ray diffraction.
# [2] = Solubility of taxoid of formula Ib in liquid excipients; format: physicochemical
# Excerpt: After a first selection of proper excipients (in terms of safety and developability), the solubility of taxoids in the excipient was the first screening step for the choice of the excipient and the selection of the prototypes. Then, the prototypes (liquid or semi-solid) were manufactured, and characterized in terms of in vitro behavior in simulated GI media and chemical stability. Finally, the physical properties and stability of the semi-solid prototypes have been investigated.
structure (smiles),measurement,setting,value
CC(=O)O[C@H]1C(=O)[C@]23C[C@H]2C[C@H]2OC[C@@]2(OC(C)=O)[C@H]3[C@H](OC(=O)c2ccccc2)[C@]2(O)C[C@H](OC(=O)[C@H](O)[C@@H](NC(=O)OC(C)(C)C)c3ccccc3)C(C)=C1C2(C)C [taxoid of formula Ib],Solubility,"[1]; in Gelucire 44/14 (lauroyl macrogol-32 glycerides), excipient melted up to 70° C.",96 mg/g
same,Solubility,"[1]; in Imwitor 988 (Glyceryl mono-dicaprylate), semi-solid excipient melted up to 70° C.",283 mg/g
same,Solubility,"[1]; in Myrj 45 (POE stearate), excipient melted up to 70° C.",128 mg/g
same,Solubility,"[1]; in PEG 4000 (polyethylene glycol 1500), excipient melted up to 70° C.",>50* mg/g
same,Solubility,"[1]; in Vitamin E TPGS (α-tocopherol PEG succinate), excipient melted up to 70° C.",73 mg/g
same,Solubility,[2]; in Capryol 90 (Polyethylene glycol monocaprylate),281 mg/g
same,Solubility,[2]; in Cremophor EL (POE hydrogenated castor oil),94 mg/g
same,Solubility,[2]; in Crossential O94 (Oleic acid),37 mg/g
same,Solubility,[2]; in Edenor C8 98-100 (Caprylic acid),138 mg/g
same,Solubility,[2]; in Ethanol,250 mg/g
same,Solubility,[2]; in HPβ cyclodextrin,0.28 mg/g
same,Solubility,[2]; in Labrafil M1944 CS (oleyl macrogol-6-glycerides),52 mg/g
same,Solubility,[2]; in Labrasol (Caprylocaproyl macrogol-8 glycerides),244 mg/g
same,Solubility,[2]; in Lauroglycol 129 (PG monolaurate),129 mg/g
same,Solubility,[2]; in Maisine 35-1 (Glyceryl linoleate),129 mg/g
same,Solubility,[2]; in Miglyol 812N (caprylic/capric triglyceride),65 mg/g
same,Solubility,[2]; in PEG 400 (polyethylene glycol 400),121 mg/g
same,Solubility,[2]; in PS 80 VG (POE monooleate),144 mg/g
same,Solubility,[2]; in PS 80 VG pH 6 (POE monooleate),135 mg/g
same,Solubility,[2]; in Peceol (Glyceryl monooleate),106 mg/g
same,Solubility,[2]; in Phosal 50 PG (Phosphatidylcholine ≧ 50% in propylene glycol),27 mg/g
same,Solubility,"[2]; in Phosal 50 SA (Phosphatidylcholine 50 ± 3% in alcohol, safflower oil, glyceryl stearate, coconut oil and ascorbyl palmitate)",97 mg/g
same,Solubility,"[2]; in Phosal 75 SA (Phosphatidylcholine 75 ± 3% in alcohol, safflower oil, glyceryl stearate, coconut oil and ascorbyl palmitate)",122 mg/g
same,Solubility,[2]; in Plurol diisostearic,23 mg/g
same,Solubility,[2]; in Plurol oleic CC497 (Polyglyceryl 6 oleate),42 mg/g
same,Solubility,"[2]; in Soybean oil (glycerides, linoleic acid 50-57%)",16 mg/g
same,Solubility,[2]; in Transcutol (Diethylene glycol monoethyl ether),197 mg/g
